# Literature values, collected in US11503825B2, “Pyrethroid formulations” (Vive Crop Protection Inc., priority 2011, dated 2022).
# “Also recorded” adds a separate entry of the source. Read-outs that look alike come from different tables or passages of the source.
# Legend:
# [1] = cited from earlier work; for Stability data: in words
# [2] = cited from earlier work; for Photolytic stability: in words; for Photolysis DT50: aqueous solution
# [3] = cited from earlier work
# [4] = hydrolysis prevents measurement; cited from earlier work
# [5] = cited from earlier work; remark: listed apart in the source
molecule,measurement,setting,value
"CC1(C)C(C=C(Cl)Cl)C1C(=O)OC(C#N)c1cccc(Oc2ccccc2)c1 (racemic) [Alpha-cypermethrin, A racemate comprising (S)-α-cyano-3-phenoxybenzyl (1R,3R)-3-(2,2-dichlorovinyl)-2,2-dimethylcyclopropanecarboxylate and (R)-α-cyano-3-phenoxybenzyl (1S,3S)-3-(2,2-dichlorovinyl)-2,2-dimethylcyclopropanecarboxylate]",DT50 (hydrolysis),"[1]; pH 4, 50° C.",stable over 10 d
same,DT50 (hydrolysis),"[1]; pH 7, 20° C.",101 days
same,DT50 (hydrolysis),"[1]; pH 9, 20° C.",7.3 days
"Cc1c(COC(=O)[C@@H]2[C@H](/C=C(\Cl)C(F)(F)F)C2(C)C)cccc1-c1ccccc1 (racemic) [Bifenthrin, 2-methylbiphenyl-3-ylmethyl (Z)-(1RS,3RS)-3-(2-chloro-3,3,3-trifluoroprop-1-enyl)-2,2-dimethylcyclopropanecarboxylate]",Soil DT50 (lab.),[1]; range,53 to 192 days
same,Photolytic stability DT50,[2]; in natural daylight,DT50 255 days in natural daylight^+
"CC1(C)[C@H](C(=O)O[C@@H](C#N)c2cccc(Oc3ccccc3)c2)[C@@H]1/C=C(\Cl)C(F)(F)F (racemic) [Cyhalothrin, (RS)-α-cyano-3-phenoxybenzyl (Z)-(1RS,3RS)-3-(2-chloro-3,3,3-trifluoroprop-1-enyl)-2,2-dimethylcyclopropanecarboxylate]",KOW logP,[3]; 20° C.,logP = 6.9
same,Stability data,[1],"Slowly hydrolyzed by water in sunlight at pH 7-9,; also recorded: more rapidly at pH >9"
same,pKa,[4],> 9
same,"Solubility in acetone, dichloromethane, methanol, diethyl ether, ethyl acetate, hexane, toluene",[5],"acetate, hexane, toluene: >500 g/L"
same,Solubility in water,"[5]; pH 5, 20° C.","water: 4.2 ug/L (pH 5, 20° C.)"
same,Photolytic stability,[2],Stable to light; slow hydrolysis by water in
"CC1(C)C(C=C(Cl)Cl)C1C(=O)OC(C#N)c1cccc(Oc2ccccc2)c1 (racemic) [Cypermethrin, (RS)-α-cyano-3-phenoxybenzyl (1RS,3RS;1RS,3SR)-3-(2,2-dichlorovinyl)-2,2-dimethylcyclopropanecarboxylate]",DT50 (hydrolysis),"[1]; pH 9, 25° C.",1.8 days
"CC(C)[C@@H](C(=O)O[C@@H](C#N)c1cccc(Oc2ccccc2)c1)c1ccc(Cl)cc1 (racemic) [Fenvalerate, (RS)-α-cyano-3-phenoxybenzyl (RS)-2-(4-chlorophenyl)-3-methylbutyrate]",KOW logP,[3]; 23° C.,logP = 5.01
same,Stability data,[1],rapidly hydrolyzed in alkaline media
same,Solubility in methanol,[5]; 20° C.,"methanol 84 (all in g/l, 20° C.)"
same,Solubility in n-hexane,[5]; 20° C.,53 g/L
same,Solubility in xylene,[5]; 20° C.,> 200 g/L
same,Solubility in water,[5]; 25° C.,water <10 μg/l (25° C.)
same,Photolytic stability,[2],Decarboxylation occurs in light^+
"CC1(C)C(C=C(Cl)Cl)C1C(=O)OC(C#N)c1cccc(Oc2ccccc2)c1 (racemic) [Zeta-cypermethrin, A mixture of the stereoisomers (S)-α-cyano-3-phenoxybenzyl (1RS,3RS;1RS,3SR)-3-(2,2-dichlorovinyl)-2,2-dimethylcyclopropanecarboxylate where the ratio of the (S);(1RS,3RS) isomeric pair to the (S);(1RS,3SR) isomeric pair lies in the ratio range 45-55 to 55-45]",Hydrolysis DT50,"[1]; pH 7, 25° C.",25 days
same,Hydrolysis DT50,"[1]; pH 9, 50° C.","1.5 h (pH 9, 50° C.)"
same,Photolysis DT50,[2],Photolysis DT50 (aqueous solution) 20-26 days^+
"CC1(C)[C@H](C(=O)O[C@H](C#N)c2cccc(Oc3ccccc3)c2)[C@@H]1C=C(Br)Br [Deltamethrin, (S)-α-cyano-3-phenoxybenzyl (1R,3R)-3-(2,2-dibromovinyl)-2,2-dimethylcyclopropanecarboxylate]",KOW logP,[3]; 25° C.,logP = 4.6
same,Stability data,[1],stable at pH 5 and 7
same,DT50,[1]; pH 8,31 days
same,DT50,[1]; pH 9,2.5 days
same,Photolytic stability,[2],Ester bond splitting and bromine loss under
"CC(C)[C@H](C(=O)O[C@H](C#N)c1cccc(Oc2ccccc2)c1)c1ccc(Cl)cc1 [Esfenvalerate, (S)-α-cyano-3-phenoxybenzyl (S)-2-(4-chlorophenyl)-3-methylbutyrate]",KOW logP,"[3]; pH 7, 25° C.",logP = 6.5
same,Stability data,[1],"Stable to hydrolysis at pH 5, 7 and 9 (25° C.)."
same,Solubility in hexane,[5]; 20° C.,77 mg/mL
same,Solubility in water,[5]; 20° C.,water 0.002 mg/l (20° C.)
same,"Solubility in xylene, acetone, chloroform, ethanol, methanol, DMF, hexylene glycol",[5]; 20° C.,> 450 mg/mL
same,Photolytic stability,[2],Stable^+
"CC1(C)[C@H](C(=O)O[C@H](C#N)c2cccc(Oc3ccccc3)c2)[C@@H]1/C=C(\Cl)C(F)(F)F [Gamma-cyhalothrin, (S)-α-cyano-3-phenoxybenzyl (Z)-(1R,3R)-3-(2-chloro-3,3,3-trifluoroprop-1-enyl)-2,2-dimethylcyclopropanecarboxylate]",KOW logP,[3]; 19° C.,logP = 4.96
same,Solubility in water,[5]; 20° C.,water 2.1 × 10^−3 mg/l (20° C.)
same,Photolysis DT50,[2],Photolysis DT50 (aqueous solution) 10.6 days^+
"CC1(C)C(C=C(Cl)Cl)C1C(=O)OCc1cccc(Oc2ccccc2)c1 (stereo not drawn) [Permethrin, 3-phenoxybenzyl (1RS,3RS;1RS,3SR)-3-(2,2-dichlorovinyl)-2,2-dimethylcyclopropanecarboxylate]",DT50,"[1]; pH 5, 7, 25° C.",stable
same,DT50 (hydrolysis),"[1]; pH 9, 25° C.",50 days
same,Solubility in methanol,[5]; 25° C.,"258 (all in g/kg, 25° C.)"
same,"Solubility in xylene, hexane",[5]; 25° C.,"xylene, hexane >1000, methanol g/kg"
same,Solubility in water,"[5]; pH 7, 20° C.","water 6 × 10^−3mg/l (pH 7, 20° C.);"
same,Solubility in water,"[5]; trans- isomers, pH not stated, 25° C.","stated, 25° C.); trans- isomers 0.13 mg/l"
same,Photolytic stability,[2],Photolysis in water^++
"CC(C)=CC1C(C(=O)OCc2coc(Cc3ccccc3)c2)C1(C)C (stereo not drawn) [Resmethrin, 5-benzyl-3-furylmethyl (1RS,3RS;1RS,3SR)-2,2-dimethyl-3-(2-methylprop-1-enyl)cyclopropane carboxylate]",KOW logP,[3]; 25° C.,logP = 5.43
same,Stability data,[1],Unstable in alkaline media
same,Solubility in water,[5]; 25° C.,water 37.9 μg/l (25° C.)
same,Solubility in acetone,"[5]; m/v, 20° C.","acetone c. 30%, chloroform,"
same,"Solubility in chloroform, dichloromethane, ethyl acetate, toluene","[5]; m/v, 20° C.",> 50%
same,"Solubility in ethanol, n-octanol","[5]; m/v, 20° C.","ethanol, n-octanol c. 6%, n-hexane"
same,Solubility in isopropyl ether,"[5]; m/v, 20° C.",~25%
same,Solubility in methanol,"[5]; m/v, 20° C.","methanol c. 3% (all m/v, 20° C.)"
same,Solubility in n-hexane,"[5]; m/v, 20° C.",~10%
same,Solubility in xylene,"[5]; m/v, 20° C.",> 40%
same,Photolytic stability,[2],Decomposes rapidly on exposure to air and light^+
"A mixture of the enantiomers (R)-α-cyano-3-phenoxybenzyl (1S,3R)-3-(2,2-dichlorovinyl)-2,2-dimethylcyclopropanecarboxylate and (S)-α-cyano-3-phenoxybenzyl (1R,3S)-3-(2,2-dichlorovinyl)-2,2-dimethylcyclopropanecarboxylate in the ratio 1:1 [Theta-cypermethrin]",DT50 (extrapolated),"[1]; pH 3, 5, 6, 25° C.",50 days
same,DT50 (extrapolated),"[1]; pH 7, 25° C.",20 days
same,DT50 (extrapolated),"[1]; pH 8, 25° C.",18 days
same,DT50 (extrapolated),"[1]; pH 9, 25° C.",10 days
Beta-cypermethrin,KOW logP,[3],logP = 4.7
same,Stability data,[1],Hydrolyzed in strongly alkaline media. DT50
same,DT50 (extrapolated),"[1]; pH 3, 5, 6, 25° C.",50 days
same,DT50 (extrapolated),"[1]; pH 7, 25° C.",40 days
same,DT50 (extrapolated),"[1]; pH 8, 25° C.",20 days
same,DT50 (extrapolated),"[1]; pH 9, 25° C.","(pH 8), 15 d (pH 9) (all at 25° C.)"
